The results in this text go back to patent US9999616B2 (ZENITH EPIGENETICS LTD., priority 2013, dated 2018).

In experiment [1] the test system is c-myc in Human AML MV4-11 cells. Kind of experiment: Inhibition of cMYC expression (mRNA, real-time PCR) in MV4-11 cells. In kind it is cell-based. The following applies: 3 h treatment, cMYC mRNA by real-time PCR. Summed up:
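MV4-11 cells in IMDM with 10% FBS were treated with increasing compound concentrations (DMSO 0.1%) for 3 h at 37 °C, in triplicate. Isolated mRNA was quantified by one-step TaqMan RT-qPCR, cMYC Ct normalized to cyclophilin, and fold expression given relative to DMSO control.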

The subject of the next experiment is Human AML MV-4-11 cells. As to the kind of experiment: Inhibition of cell proliferation in MV4-11 cells (CellTiter Aqueous One). In kind it is cell-based. To be noted: MV4-11, 72 h. Summed up:
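MV4-11 cells, 5×10^4 per well in IMDM with 10% FBS, were exposed to increasing compound concentrations or 0.1% DMSO for 72 h at 37 °C in triplicate. Viability was read by MTS (CellTiter Aqueous One) absorbance at 490 nm after 3-4 h. IC50 was derived from background-corrected signal relative to DMSO.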

Another experiment has as its system hIL-6 mRNA. As to the kind of experiment: Inhibition of hIL-6 mRNA transcription in LPS-stimulated U937 macrophages. In kind it is cell-based, Human. To be noted: Homo sapiens, U-937, PMA-differentiated U937 cells, 1 h pretreatment, LPS 3 h, read-out: IL-6 activity. In a few lines:
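PMA-differentiated U937 macrophages (60 ng/mL PMA, 3 days) pretreated 1 h with compound in 0.1% DMSO, then stimulated with 1 ug/mL E. coli LPS for 3 h at 37° C. IL-6 mRNA quantified by one-step TaqMan qRT-PCR, normalized to cyclophilin; fold expression relative to control, triplicate wells.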

For another experiment, the system named is hIL-17 mRNA. Kind of experiment: Inhibition of hIL-17 mRNA transcription in OKT3-stimulated peripheral blood mononuclear cells. The following applies: human PBMC, OKT3 stimulation 6 h, read-out: IL-17 Activity. In kind it is cell-based. Summed up:
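Human PBMCs in IL-2 (20 ng/ml) medium preincubated 1 h with compound or 0.1% DMSO, then OKT3-stimulated for 6 h at 37 °C. hIL-17 mRNA quantified by one-step TaqMan qRT-PCR, normalized to an internal control, as fold induction relative to control.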

The subject of the next experiment is MV4-11 cells. Kind of experiment: In vivo efficacy in athymic nude mouse acute myeloid leukemia xenograft model using MV4-11 cells. To be noted: athymic nude mouse AML xenograft (MV4-11), oral dosing. How it is done: MV4-11 cells (ATCC) were grown under standard cell culture conditions and (NCr) nu/nu fisol strain of female mice age 6-7 weeks were injected with 5×10^6 cells/animal in 100 μL PBS+100 μL Matrigel in the lower left abdominal flank. By approximately day 18-21 after MV4-11 cells injection, mice were randomized based on tumor volume (L×W×H)/2) of average ˜100-300 mm^3. Mice were dosed orally with compound at 5 to 120 mg/kg b.i.d and/or q.d. on a continuous dosing schedule and at 2.5 to 85 mg/kg q.d. on a 5 day on 2 day off, 100 mg/kg q.d. on a 4 day on and 3 day off, 135 mg/kg q.d. on a 3 day on and 4 day off, 180 mg/kg on a 2 day on and 5 day off and 240 mg/kg on a 1 day on and 6 days off dosing schedules in EA006 formulation at 10 mL/kg body weight dose volume. Tumor measurements were taken with electronic micro calipers and body weights measured on alternate days beginning from dosing period. The average tumor volumes, percent Tumor Growth Inhibition (TGI) and % change in body weights were compared relative to Vehicle control animals. The means, statistical analysis and the comparison between groups were calculated using Student's t-test in Excel.

The target of experiment [2] is T1, Brd4 bromodomain 1 (BRD4(1)) (Homo sapiens, UniProt O60885). As to the kind of experiment: Inhibition of tetra-acetylated histone H4 binding to Brd4 bromodomain 1, measured by FRET (HTRF). The following applies: 2 h at room temperature. Details: made in house; host or cells: E. coli BL21(DE3). Summed up:
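Inhibition was read as a drop in 665 nm relative to 620 nm HTRF signal after 2 h at room temperature, with IC50 from dose-response curves in duplicate wells. Reactions held 200 nM E. coli-expressed His-tagged bromodomain and 25-50 nM biotinylated tetra-acetylated histone H4 peptide. Buffer was 30 mM HEPES pH 7.4 with KF, CHAPS, BSA and 0.2% DMSO.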

The target of experiment [3] is T1, Brd4 bromodomain 1 (BRD4(1)). The description is as above. Details: to Brd4 bromodomain 1 (BRD4(1) as Measured by FRET); made in house; host or cells: E. coli BL21(DE3). To be noted: 2 h at room temperature. On the procedure: Proteins were cloned and overexpressed with a N-terminal 6×His tag, then purified by nickel affinity followed by size exclusion chromatography. Briefly, E. coli BL21(DE3) cells were transformed with a recombinant expression vector encoding N-terminally Nickel affinity tagged bromodomains from Brd2, Brd3, Brd4. Cell cultures were incubated at 37° C. with shaking to the appropriate density and induced overnight with IPTG. The supernatant of lysed cells was loaded onto Ni-IDA column for purification. Eluted protein was pooled, concentrated and further purified by size exclusion chromatography. Fractions representing monomeric protein were pooled, concentrated, aliquoted, and frozen at −80° C. for use in subsequent experiments.
Binding of tetra-acetylated histone H4 and BET bromodomains was confirmed by a Homogenous Time Resolved Fluorescence Resonance Energy Transfer (HTRF®) method. […] After a 2 h incubation at room temperature, fluorescence was measured at 665 and 620 nm with a SynergyH4 plate reader (Biotek). The binding inhibitory activity was shown by a decrease in 665 nm relative to 620 nm fluorescence. IC50 values were determined from a dose response curve.

`Cc1ncccc1-c1cc(-c2c(C)noc2C)cc2[nH]cnc12` [Example Compound 27, 3,5-dimethyl-4-(4-(2-methylpyridin-3-yl)-1H-benzo[d]imidazol-6-yl)isoxazole]: the IC50 in experiment [1] was 300 to 3000 nM; in the experiment on Human AML MV-4-11 cells, 300 to 3000 nM; in the experiment with hIL-6 mRNA, at most 300 nM; in the experiment on hIL-17 mRNA it was at most 300 nM; in experiment [2], at most 300 nM. Moreover, the In vivo activity entry with MV4-11 cells is on record as “Active”.

As to `Cc1ncccc1-c1cc(-c2c(C)noc2C)cc2cn[nH]c12` [Example Compound 70], the IC50 in experiment [1] was 300 to 3000 nM; in the experiment with Human AML MV-4-11 cells, 300 to 3000 nM; with hIL-6 mRNA, 300 to 3000 nM; in experiment [3] it was at most 300 nM.
